Measured values: article PMC9281569, “Two HCN4 Channels Play Functional Roles in the Zebrafish Heart” (Frontiers in Physiology, 2022)

What was measured:
[1] = system: developing zebrafish embryos; experiment: Antisense morpholino knockdown: heart rate of zebrafish embryos; assay type: in vivo, zebrafish (Danio rerio); details: 200 μM MO into 1-cell embryos
Method: The heart rate of zebrafish embryos was measured under an Olympus MVX10 microscope at room temperature. After zebrafish embryos were acclimated to the new environment (room temperature, light), heart rate was counted by eye.
(§1) Morpholino antisense oligos (MO) were purchased from Gene Tools (Philomath, OR, United States) ([Fujii et al., 2020]). Zebrafish 1-cell embryos were injected with approximately 5 nL of MO solution at a concentration of 200 μM (approximately 10 ng/embryo).
Since DrHCN4 and DrHCN4L have similar sensitivities to the HCN inhibitors, individual gene knockdowns would be required for evaluating each channel’s role in heart rate regulation. Before knocking down each gene, we first confirmed that both HCN4 channels (DrHCN4 and DrHCN4L) were expressed in day 1, day 3, and day 7 embryos and in the heart and brain of adult fish (Figure 6A). We next investigated whether the knockdown of each gene affects heart rate in zebrafish. The expression of each gene was knocked down by using antisense morpholino (MO), which is commonly used in zebrafish ([Blum et al., 2015]; [Jou et al., 2017]; [Fujii et al., 2020]). MO solutions were injected into 1-cell embryos of zebrafish. […] Embryos were injected with control MO, DrHCN4 MO, and DrHCN4L MO at concentrations of 200 μM or with a mixture of DrHCN4 MO and DrHCN4L MO (200 μM for each). At 24 h after injection of MO, there was a slight decrease of heart rate in embryos injected with DrHCN4 MO (44 ± 2 bpm, p = 0.049) and DrHCN4L MO (45 ± 2 bpm, p = 0.092) compared to the heart rate in embryos injected with control MO (54 ± 1 bpm). […] After 48 h, heart rate was considerably lower in all three groups compared to that in the control group (135 ± 4 bpm): DrHCN4 MO (110 ± 3 bpm, p < 0.001), DrHCN4L MO (111 ± 1 bpm, p = 0.001), and mixture of DrHCN4 MO and DrHCN4L MO (116 ± 7 bpm, p = 0.014). However, at 72 h after MO injection, heart rate in all three groups had returned to the same level as that in the control group (145 ± 5 bpm): DrHCN4 MO (136 ± 3 bpm, p = 0.509), DrHCN4L MO (141 ± 5 bpm, p = 0.921), and mixture of DrHCN4 MO and DrHCN4L MO (147 ± 7 bpm, p = 0.991) (Figure 6B and Table 6).
(§2) FIGURE 6 Effects of HCN4 channel knockdown on zebrafish. (A) Expression of DrHCN4 and DrHCN4L in one (1), three (3), and seven (7) day embryos/larvae as well as in the heart (H) and brain (B) of adult fish was confirmed by RT-PCR. Arrows indicate the DNA ladder markers of 1,000 bp and 500 bp. (B) Heart rates at 24, 48, and 72 h are shown in bar graphs for 200 μM MO-injected zebrafish embryos: control MO (n = 20), DrHCN4 MO (n = 10), DrHCN4L MO (n = 10), and mixed DrHCN4 and DrHCN4L MO (n = 10). Statistical analysis was performed by Dunnett’s test. (C) Representative examples of zebrafish injected with control MO, DrHCN4 MO, DrHCN4L MO, and mixed DrHCN4 and DrHCN4L MO. […] Bar, 200 μm. (D) Ratios of normal embryos, pericardial edema, and death at 48 h after injection of 200 µM MO: control MO (n = 136), DrHCN4 MO (n = 75), DrHCN4L MO (n = 34), and mixed DrHCN4 and DrHCN4L MO (n = 30). (E) Pericardial edema and death ratios at 72 h after injection of 200 µM MO. Control MO (n = 136), DrHCN4 MO (n = 75), DrHCN4L MO (n = 34), and mixed DrHCN4 and DrHCN4L MO (n = 30).

[2] = system: developing zebrafish embryos; experiment: as above; assay type: in vivo, zebrafish (Danio rerio); details: Supplementary Figure S2, 52 hpf
zebrafish embryos = experiment: Incidence of pericardial edema in MO-injected zebrafish embryos; assay type: in vivo, zebrafish (Danio rerio); details: embryos surviving first 24 h
Method: as §1, §2
Pericardial edema is often observed in embryonic zebrafish with heart failure ([Narumanchi et al., 2021]). We determined the incidence of edema in zebrafish injected with 200 μM MO. We only examined zebrafish embryos that survived for the first 24 h after MO injection, and the rates of edema occurrence were determined at 48 and 72 h after injection. […] After 72 h, the proportions of embryos with edema increased to 79, 94, and 87% (Figure 6E).

adult zebrafish = system: adult zebrafish; design: method as in Marchant and Farrell, 2019; details: intraperitoneal injection, depending on test temperatures, ref Marchant and Farrell, 2019; cited from earlier work
[3] = 48 h after injection of 200 μM MO
[4] = 72 h after injection of 200 μM MO

5′-CCTCTTACCTCAGTTACAATTTATA -3′ [Control MO]
Heart rate ([1]; 24 h after MO injection): 54 ± 1 bpm | Heart rate ([1]; 48 h after MO injection): 135 ± 4 bpm | Heart rate ([1]; 72 h after MO injection): 145 ± 5 bpm | Effect of injection on heart rate [2]: did not affect heart rate

5′-GGCGACGCTGGCTGAAAAATAGGTC -3′ (all phosphorodiamidate morpholino (PMO)) [DrHCN4L MO, Morpholino antisense oligo against DrHCN4L (Gene Tools)]
Heart rate ([1]; 24 h after MO injection): 45 ± 2 bpm | Heart rate ([1]; 48 h after MO injection): 111 ± 1 bpm | Heart rate ([1]; 72 h after MO injection): 141 ± 5 bpm | Embryos showing pericardial edema (zebrafish embryos; [3]): 62% | Embryos showing pericardial edema (zebrafish embryos; [4]): 94%

COc1ccc(CCN(C)CCCN2CCc3cc(OC)c(OC)cc3CC2=O)cc1OC [zatebradine]
Reduction of maximum heart rate (adult zebrafish): 38–65%

5′-GTAATTACTGCCACCGTGCACCACA-3′ (all phosphorodiamidate morpholino (PMO)) [DrHCN4 MO, Morpholino antisense oligo against DrHCN4 (Gene Tools)]
Heart rate ([1]; 24 h after MO injection): 44 ± 2 bpm | Heart rate ([1]; 48 h after MO injection): 110 ± 3 bpm | Heart rate ([1]; 72 h after MO injection): 136 ± 3 bpm | Embryos showing pericardial edema (zebrafish embryos; [3]): 59% | Embryos showing pericardial edema (zebrafish embryos; [4]): 79%
